Literature values, collected in US20200222348A1, “BIMODAL MODIFIED RELEASE COMPOSITIONS FOR CANCER TREATMENT” (MUSLI THYROPEUTICS LTD., priority 2017, published 2020).

Details: stated as general knowledge

N[C@@H](Cc1cc(I)c(Oc2ccc(O)c(I)c2)c(I)c1)C(=O)O [Example T3, triiodothyronine]
biological half-life (T3, short biological half-life): 48-60 hours | Tmax in serum (T3 in serum): about 4 hrs
